Results reported in patent US20180325850A1 (The Regents of the University of Michigan, priority 2017, published 2018).

How the values were obtained:
Type in all cases: in vivo, rat
[1] = system: MI rats generated by ischemia reperfusion; experiment: Myocardial infarct size by triphenyltetrazolium chloride (TTC) staining; conditions: two shots of VPA within 24 h of IR injury; versus saline controls
Procedure: Myocardial infarct size was determined by triphenyltetrazolium chloride (TTC) staining. The hearts were frozen rapidly and sliced into five 2 mm transverse sections. The sections were incubated at 37° C. with 1% TTC in phosphate buffer (pH 7.4) for 10 min, fixed in 10% formaldehyde solution, photographed and calculated using ImageJ software. The infarct size was expressed as a percentage of infarct volume versus left ventricle volume.

[2] = system: MI rats generated by ischemia reperfusion; experiment: Echocardiography of heart function (EF, FS) after ischemia reperfusion MI
Procedure: 24 h post coronary ligation, a MI size of 33.59±3.54% of the left ventricle was induced in rats. […] Left ventricular internal diameter end diastole (LVIDd) and end systole (LVIDs) were measured perpendicularly to the long axis of the ventricle. EF and FS were calculated according to LVIDd and LVIDs.

[3] = system: Foxm1; experiment: RNA-seq of whole hearts one day after IR
Excerpt: Recent studies indicate that neonatal CMs proliferate much more potently than adult CMs and Foxm1 appears to be a key factor in regulating neonatal CM proliferation by controlling Igf1 and cell cycle genes (Ref. 44; incorporated by reference in its entirety). […] These genes are mostly proliferation related genes. Other potential targets include anti-oxidative, pro-fibrotic, and CM structural genes. Foxm1 has also been reported to work with YAP1 to activate proliferation genes (Ref. 46; incorporated by reference in its entirety).

[4] = system: IR rats; experiment: Plasma biochemical assay of LDH and creatine kinase (MI injury biomarkers); conditions: 24 h after VPA treatment
Procedure: To determine the possible protective effect of VPA after MI, MI rats were generated by ischemia reperfusion and VPA was administrated to the animals. […] Intra-peritoneal injection of 250 mg/kg VPA was conducted immediately after and 12 h after coronary ligation. Heart functional assays, MI assessment, and physiological assays were performed 24 h after VPA administration.

[5] = system: IR rats; experiment: Long-term (4-week) oral VPA treatment of IR rats, EF and FS; conditions: oral VPA 250 mg/kg twice daily for 4 weeks, versus IR control animals
Procedure: In addition, long-term (4-week) treatment of VPA was performed to IR rats.

[6] = IR rats, 250 mg/kg VPA intra-peritoneal immediately after and 12 h after coronary ligation, echocardiography at 24 h

What does the source list for `CCCC(CCC)C(=O)O` [VPA, valproic acid]?
reduction of infarct size [1]: around 45%; fractional shortening (FS) [2, 6]: 33.21±4.46%; left ventricle ejection fraction (EF) [2, 6]: 60.60±6.18%; rescue of the functional loss caused by acute IR injury ([2]; VPA treatment within 12 h of IR injury, from EF and FS): roughly 50%; Foxm1 expression, IR+VPA group versus no IR group [3]: 8 fold; plasma LDH release [4]: 63.07±23.83 U/L; plasma creatine kinase (CK) release [4]: 158.31±43.53 U/L; effect on ventricular remodeling and pumping function (EF, FS) [5]: protected the MI hearts from ventricular remodeling and weakening of the pumping function
